Assay results from publication PMC2752989 (PLoS ONE, 2009).

What was measured:
[1] = test system: Candida parapsilosis ATCC 90018; assay type: cell-based; conditions: pH 7.4
[2] = test system: C. parapsilosis ATCC 90018; assay type: cell-based, Candida parapsilosis; conditions: n = 3
[3] = test system: bacteria; conditions: cited from earlier work
[4] = test system: HaCaT keratinocytes

AHHAHAAHHAHAAHHAHAAHHAHA [AHH24, previously described H-rich control peptide]
antimicrobial activity (viable count) with Zn2+ [1]: dose-dependent killing | antimicrobial activity (viable count) without Zn2+ [1]: showed no antimicrobial activity | antimicrobial activity in RDA at low pH versus normal pH [2]: showed enhanced activity at low pH | antimicrobial activity in RDA with versus without Zn2+ [2]: significantly enhanced

GHHPHGHHPHGHHPHGHHPH [GHH20, H-rich control peptide derived from histidine-rich glycoprotein]
antimicrobial activity (viable count) with Zn2+ [1]: dose-dependent killing | antimicrobial activity (viable count) without Zn2+ [1]: showed no antimicrobial activity | antimicrobial activity in RDA at low pH versus normal pH [2]: showed enhanced activity at low pH | antimicrobial activity in RDA with versus without Zn2+ [2]: significantly enhanced

GKRKKKGKGLGKKRDPCLRKYK [GKR22]
antibacterial activity in physiological buffers and plasma [3]: retain antibacterial activity in physiological buffers as well as in plasma

HKHGHGHGKHKNKGKKNGKH [HKH20, kininogen-derived antimicrobial peptide]
antibacterial activity in physiological buffers and plasma [3]: retain antibacterial activity in physiological buffers as well as in plasma

LL-37: classical human antimicrobial cathelicidin peptide, benchmark
cell permeabilization (LDH release) [4]: less active
